Assay results from ChEMBL document CHEMBL5625161, “Pharmacological activity and mechanism of pyrazines” (Eur J Med Chem, 2023).
Converted amounts (≈) assume the structure as drawn.

Experiments:
SMMC-7721 = test: Antiproliferative activity against human SMMC-7721 cells assessed as reduction in cell viability measured after 72 hrs by MTT assay; assay type: functional, cell-based; conditions: SMMC-7721, 72 h
SGC-7901 = test: Antiproliferative activity against human SGC-7901 cells assessed as reduction in cell viability measured after 72 hrs by MTT assay; assay type: functional, cell-based; conditions: SGC-7901, 72 h
[1] = Antiproliferative activity against human PaTu8988 cells assessed as reduction in cell viability measured after 72 hrs by MTT assay; assay type: functional, cell-based; conditions: PaTu8988, 72 h
CCRF-CEM [2] = test: Growth inhibition of human CCRF-CEM cells; assay type: functional, cell-based; conditions: pooled result: one value given for 60 cell lines, strains, targets or settings
BJ = test: Cytotoxicity against human BJ cells assessed as cell growth inhibition measured after 72 hrs by Celltiter-Glo assay; assay type: functional, cell-based
LN-229 = test: Cytotoxicity against human LN-229 cells assessed as reduction in cell growth incubated for 72 hrs by Celltiter-Glo assay; assay type: functional, cell-based; conditions: LN-229, 72 h
HCT-116 = test: Cytotoxicity against human HCT-116 cells assessed as cell growth inhibition measured after 48 hrs by MTT assay; assay type: functional, cell-based; conditions: HCT-116, 48 h
MCF7 [3] = test: Cytotoxicity against human MCF7 cells assessed as cell growth inhibition measured after 48 hrs by MTT assay; assay type: functional, cell-based; conditions: MCF7, 48 h
K562 = test: Cytotoxicity against human K562 cells assessed as cell growth inhibition measured after 48 hrs by MTT assay; assay type: functional, cell-based; conditions: K562, 48 h
Histone deacetylase 2 = Histone deacetylase 2 (Homo sapiens, UniProt Q92769); test: Inhibition of human recombinant HDAC2
MCF7 [4] = test: Antiproliferative activity against human MCF7 cells assessed as reduction in cell viability incubated for 48 hrs by MTT assay; assay type: functional, cell-based; conditions: MCF7, 48 h
Histone deacetylase 3 = Histone deacetylase 3 (Homo sapiens, UniProt O15379); test: Inhibition of human recombinant HDAC3
Histone deacetylase 1 = Histone deacetylase 1 (Homo sapiens, UniProt Q13547); test: Inhibition of human recombinant HDAC1
PC-9/ER = test: Antiproliferative activity against human PC-9/ER cells assessed as inhibition of cell growth incubated for 48 hrs by MTT assay; assay type: functional
PC-9 = test: Antiproliferative activity against human PC-9 cells assessed as reduction in cell growth incubated for 72 hrs by MTT assay; assay type: functional, cell-based; conditions: PC-9, 72 h
KG-1 [5] = test: Antiproliferative activity against human KG-1 cells assessed as reduction in cell viability incubated for 72 hrs by MTT assay; assay type: functional, cell-based; conditions: KG-1, 72 h
A549 [6] = test: Antiproliferative activity against human A549 cells assessed as inhibition of cell growth at 10 uM relative to control; assay type: functional; set-up: scale not given: the % may be the effect or the level left
Caco-2 = test: Growth inhibition of human Caco-2 cells measured after 48 hrs by SRB assay; assay type: functional
AGS = test: Growth inhibition of human AGS cells measured after 48 hrs by SRB assay; assay type: functional
[7] = Cytotoxicity against African green monkey Vero cells incubated for 48 hrs by SRB colorimetric assay; assay type: toxicity, cell-based, Chlorocebus sabaeus
HT-29 = test: Antiproliferative activity against human HT-29 cells assessed as reduction in cell viability incubated for 72 hrs by MTT assay; assay type: functional, cell-based; conditions: HT-29, 72 h
Plasmodium falciparum = test: Antiplasmodial activity against chloroquine-sensitive Plasmodium falciparum NF54 assessed as reduction in parasite growth; assay type: functional, organism-based
[8] = system: Mycobacterium tuberculosis; test: Antimycobacterial activity against Mycobacterium tuberculosis H37Rv assessed as inhibition of bacterial growth by microplate alamar blue assay; assay type: functional
[9] = target: Fibroblast growth factor receptor 1 (Homo sapiens, UniProt P11362); test: Inhibition of human recombinant FGFR1 (461 to 768 residues) expressed in Escherichia coli BL21 Gold(DE3) cells by spectrophotometer method
KG-1 [10] = test: Antiproliferative activity against FGFR1-translocated human KG-1 cells assessed as reduction in cell viability incubated for 72 hrs by CCK-8 assay; assay type: functional, cell-based; conditions: KG-1, 72 h
A549 [11] = test: Antiproliferative activity against human A549 cells assessed as reduction in cell viability measured after 3 to 4 days by MTT assay; assay type: functional, cell-based
CCRF-CEM [12] = test: Antiproliferative activity against human CEM cells assessed as reduction in cell viability measured after 3 to 4 days by MTT assay; assay type: functional, cell-based
[13] = Antiproliferative activity against human Molt 4/C8 cells assessed as reduction in cell growth measured after 3 to 4 days by MTT assay; assay type: functional, cell-based; conditions: Molt4/C8
MCF7 [14] = test: Antiproliferative activity against human MCF7 cells assessed as reduction in cell growth measured after 3 to 4 days by MTT assay; assay type: functional, cell-based
HeLa = test: Antiproliferative activity against human HeLa cells assessed as reduction in cell viability measured after 3 to 4 days by MTT assay; assay type: functional, cell-based
SW-620 = test: Antiproliferative activity against human SW-620 cells assessed as reduction in cell growth measured after 3 to 4 days by MTT assay; assay type: functional, cell-based
[15] = Antiproliferative activity against human WI-38 cells assessed as reduction in cell growth measured after 3 to 4 days by MTT assay; assay type: toxicity, cell-based
HepG2 = test: Antiproliferative activity against human HepG2 cells assessed as reduction in cell viability measured after 3 to 4 days by MTT assay; assay type: functional, cell-based
L1210 = test: Antiproliferative activity against mouse L1210 cells assessed as reduction in cell viability measured after 3 to 4 days by MTT assay; assay type: functional, cell-based
[16] = Cytotoxicity against human MRC5 cells assessed as reduction in cell growth measured after 48 hrs by MTT assay; assay type: toxicity, cell-based
MCF7 [17] = test: Cytotoxicity against human MCF7 cells assessed as reduction in cell growth measured after 48 hrs by MTT assay; assay type: functional, cell-based; conditions: MCF7, 48 h

Fibroblast growth factor receptor 1, sequence (P11362 whole entry, the tested form may be a part): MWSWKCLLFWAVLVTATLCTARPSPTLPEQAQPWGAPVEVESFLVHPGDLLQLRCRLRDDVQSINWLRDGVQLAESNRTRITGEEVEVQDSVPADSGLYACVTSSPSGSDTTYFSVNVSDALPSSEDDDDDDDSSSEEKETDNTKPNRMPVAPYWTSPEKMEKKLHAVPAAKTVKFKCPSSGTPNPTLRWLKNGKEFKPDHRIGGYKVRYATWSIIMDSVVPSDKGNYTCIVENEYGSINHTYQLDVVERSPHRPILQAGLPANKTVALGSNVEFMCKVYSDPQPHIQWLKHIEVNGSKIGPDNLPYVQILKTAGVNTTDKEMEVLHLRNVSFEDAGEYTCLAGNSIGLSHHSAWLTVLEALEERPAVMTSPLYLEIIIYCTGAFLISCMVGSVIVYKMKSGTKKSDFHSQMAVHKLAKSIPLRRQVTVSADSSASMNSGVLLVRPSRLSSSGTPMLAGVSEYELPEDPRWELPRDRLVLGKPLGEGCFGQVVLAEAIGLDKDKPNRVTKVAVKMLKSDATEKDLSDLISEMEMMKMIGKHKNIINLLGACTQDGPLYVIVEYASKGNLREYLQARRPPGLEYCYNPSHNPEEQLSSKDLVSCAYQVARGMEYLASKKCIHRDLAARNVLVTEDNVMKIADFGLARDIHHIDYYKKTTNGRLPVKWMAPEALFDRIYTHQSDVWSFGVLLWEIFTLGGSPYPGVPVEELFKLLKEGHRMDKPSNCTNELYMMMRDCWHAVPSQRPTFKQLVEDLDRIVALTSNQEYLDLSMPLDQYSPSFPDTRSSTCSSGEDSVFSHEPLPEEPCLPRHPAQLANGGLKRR
Histone deacetylase 3, sequence (O15379 whole entry): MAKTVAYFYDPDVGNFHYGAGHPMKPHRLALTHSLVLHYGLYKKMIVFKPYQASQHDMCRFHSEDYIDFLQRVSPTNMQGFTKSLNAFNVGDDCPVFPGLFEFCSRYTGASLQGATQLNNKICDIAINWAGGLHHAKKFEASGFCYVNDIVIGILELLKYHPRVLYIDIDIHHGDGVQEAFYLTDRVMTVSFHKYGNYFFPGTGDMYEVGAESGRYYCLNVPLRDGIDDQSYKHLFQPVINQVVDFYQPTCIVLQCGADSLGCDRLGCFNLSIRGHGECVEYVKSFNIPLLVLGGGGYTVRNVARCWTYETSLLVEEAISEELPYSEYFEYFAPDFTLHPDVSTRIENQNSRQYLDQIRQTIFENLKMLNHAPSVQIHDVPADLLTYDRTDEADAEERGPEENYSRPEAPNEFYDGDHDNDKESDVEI
Histone deacetylase 1, sequence (Q13547 whole entry): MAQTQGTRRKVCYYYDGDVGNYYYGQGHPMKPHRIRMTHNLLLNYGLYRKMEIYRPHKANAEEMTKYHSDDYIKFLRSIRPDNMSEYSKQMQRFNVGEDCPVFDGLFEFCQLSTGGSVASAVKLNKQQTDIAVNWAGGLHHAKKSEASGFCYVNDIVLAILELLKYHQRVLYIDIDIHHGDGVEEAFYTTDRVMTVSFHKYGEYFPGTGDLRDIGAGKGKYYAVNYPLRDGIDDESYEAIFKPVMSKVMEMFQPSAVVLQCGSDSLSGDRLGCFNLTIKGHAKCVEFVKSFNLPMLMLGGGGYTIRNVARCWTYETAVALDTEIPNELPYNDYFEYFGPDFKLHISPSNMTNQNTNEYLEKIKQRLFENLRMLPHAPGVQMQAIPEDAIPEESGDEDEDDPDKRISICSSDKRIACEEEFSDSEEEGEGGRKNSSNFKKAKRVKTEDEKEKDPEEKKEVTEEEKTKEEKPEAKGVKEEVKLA
Histone deacetylase 2, sequence (Q92769 whole entry): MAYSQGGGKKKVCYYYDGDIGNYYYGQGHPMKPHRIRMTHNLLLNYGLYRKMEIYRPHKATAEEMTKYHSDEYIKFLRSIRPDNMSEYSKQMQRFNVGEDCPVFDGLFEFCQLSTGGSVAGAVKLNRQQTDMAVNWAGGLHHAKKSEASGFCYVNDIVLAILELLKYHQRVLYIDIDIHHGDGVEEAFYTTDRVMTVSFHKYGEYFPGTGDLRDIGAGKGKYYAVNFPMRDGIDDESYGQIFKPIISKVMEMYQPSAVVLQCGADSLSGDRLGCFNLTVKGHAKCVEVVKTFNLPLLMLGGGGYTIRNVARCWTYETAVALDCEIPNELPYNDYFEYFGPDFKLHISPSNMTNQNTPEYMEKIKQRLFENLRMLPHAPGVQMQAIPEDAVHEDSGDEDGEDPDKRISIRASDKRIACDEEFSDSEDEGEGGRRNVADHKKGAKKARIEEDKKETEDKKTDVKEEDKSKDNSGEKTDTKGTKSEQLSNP

With COc1cccc(/C=N/C(=O)c2cnccn2)c1O the IC50 (SMMC-7721) was 300 nM, the IC50 (SGC-7901) was 300 nM and the IC50 [1] was 300 nM.
Work on c1cn2cc(-c3ccc4ncn(C5CCCCC5)c4c3)nc(-c3ccc4ncn(C5CCCCC5)c4c3)c2n1 yielded an IC50 (CCRF-CEM [2]) of 810 nM.
With N#Cc1cncc(Cl)n1 the IC50 (BJ) was 95700 nM and the IC50 (LN-229) was 18200 nM.
c1ccc(CNc2c(-c3ccncc3)nc3cnccn23)cc1 showed an IC50 (HCT-116) of 6660 nM, an IC50 (MCF7 [3]) of 6660 nM and an IC50 (K562) of 6660 nM.
COc1cnc(C(=O)NCC2(C)CCCC3(C)c4ccc(C(C)C)cc4CCC23)cn1 (stereo unspecified) gave an IC50 (Histone deacetylase 2) of 280 nM, an IC50 (MCF7 [4]) of 6660 nM and an IC50 (Histone deacetylase 3) of 310 nM. The IC50 (Histone deacetylase 1) was 130 nM.
In the case of c1cc2cc(-c3cnc4nc(-c5ccc6c(c5)OCCO6)cnc4c3)ccc2[nH]1, the IC50 (PC-9/ER) is reported as 150 nM and the IC50 (PC-9) is reported as 90 nM.
O=S(=O)(c1cn(CCF)cn1)n1ccc2ncc(-c3cn[nH]c3)nc21 showed an IC50 (KG-1 [5]) of 29.1 nM.
In the case of Cc1cc(=O)oc2cc(Oc3nc(-c4ccc(Cl)cc4)cn4c(-c5ccc(Cl)cc5)cnc34)ccc12, the Activity (A549 [6]) is reported as 90.12%.
COC(=O)c1sc2nccnc2c1Nc1ccc(OC)c(OC)c1 gave a GI50 (Caco-2) of 8000 nM, a GI50 (AGS) of 9200 nM and an IC50 at 48 h [7] of 53000 nM.
With CNCc1ccc(-c2cc(-c3nc(-c4ccc(S(=O)(=O)C(C)C)cc4)cnc3N)on2)cc1 [BERZOSERTIB] the IC50 (HT-29) was 19 nM.
With O=C(NCCNc1ccnc2cc(Cl)ccc12)c1cnccn1 the IC50 (Plasmodium falciparum) was 647 nM and the MIC99 [8] was 320 µM (≈ 105 µg/mL).
In the case of COc1cc(OC)c(F)c(/C=C/c2cnc3c(n2)N(S(=O)(=O)c2cn(CCF)cn2)CC3)c1F, the IC50 [9] is reported as 600 nM and the IC50 (KG-1 [10]) is reported as 0.5 nM.
O=C(Nc1ccc(Br)cc1)Nc1ccc(Oc2cnc(C(=O)NC3CCCC3)cn2)cc1 showed an IC50 (A549 [11]) of 900 nM, an IC50 (CCRF-CEM [12]) of over 250000 nM and an IC50 [13] of over 250000 nM. It also gave an IC50 (MCF7 [14]) of over 250000 nM, an IC50 (HeLa) of 600 nM and an IC50 (SW-620) of 39600 nM. It also gave an IC50 [15] of over 100000 nM, an IC50 (HepG2) of 700 nM and an IC50 (L1210) of 87000 nM.
With C/C(=N\NC(=S)N1CCCCC1)c1cnccn1 the IC50 at 48 h [16] was over 60000 nM and the IC50 (MCF7 [17]) was 3820 nM.
